# Measurements taken from PubChem BioAssay AID720570 (Broad Institute, 2013).
# System: TC71 Ewing sarcoma viability, CellTiter-Glo ATP, 72 h
# Assay: TC71 Ewing sarcoma cell killing, confirmation, luminescence, cherry-picked samples, retest (AID 720570)
row,Compound,AC35 [µM]
1,Nc1ncn([C@@H]2O[C@H](CO)[C@@H](O)[C@H]2O)c(=O)n1,11.7
2,CCN1/C(=C/C=C/c2oc3ccc(-c4ccccc4)cc3[n+]2CC)Oc2ccc(-c3ccccc3)cc21,2.39
3,COc1ccc(-c2cnc3c(NC=O)cc(-c4ccccc4OC)cn23)cc1OC,0.147
4,CCOC(=O)[C@]12Cc3ccc(C)cc3[C@H]1N(C1CCCCC1)C(=O)c1ccccc12,12.1
5,O=C(CCc1ccccc1)NC(c1cccs1)c1cc(Cl)c2cccnc2c1O (stereo not given),2.81
6,BrC(=C\c1ccccc1)/C=N/n1cnnc1,14.5
7,CCCc1cc(=O)oc2c3c(c4c(c12)OC(C)(C)C=C4)OC(C)C(C)C3O (stereo not given),22.6
8,CC(C)CC#Cc1ccc([C@@H]2[C@@H](CO)N3CCCCN(S(=O)(=O)c4ccc(F)cc4)C[C@H]23)cc1,13.2
9,Cc1noc(C)c1C(=O)Nc1sccc1C(N)=O,13.6
10,COc1ccc(S(=O)(=O)N2CC[C@@H]3[C@@H](CO)Nc4ccc(-c5ccc(C#N)cc5)cc4[C@@H]32)cc1,2.52
11,Nc1nc(N)c(-c2cccc(C(F)(F)F)c2)c(Cc2cccc(C(F)(F)F)c2)n1,4.27
12,NC(Cc1ccc(C(F)(F)F)cc1)c1csc(NC(=O)Nc2ccccc2Cc2ccccc2)n1 (stereo not given),12.7
13,C[C@H]1CCCCO[C@H](CN(C)Cc2ccc(C(F)(F)F)cc2)[C@@H](C)CN([C@@H](C)CO)C(=O)c2cc(NC(=O)Nc3ccccc3)ccc2O1,12.4
14,Nc1ccc(Cn2ccc3c4c(N)nc(N)nc4ccc32)cc1,0.0342
15,CN1C2CCC1/C(=C/c1ccccn1)C(=O)/C2=C\c1ccccn1,1.43
16,Cc1nc(N)nc(N)c1CCCc1ccc(Cl)c(Cl)c1,1.81
17,C/C(=N\NC(=O)c1n[nH]c2c1CCC2)c1cccs1,20.2
18,COc1ccc(NC(=O)N2CCCCN3[C@H](CO)[C@H](c4ccc(C#CCC(C)C)cc4)[C@H]3C2)cc1,12.2
19,Cc1cc(-c2nc3ccccc3s2)ccc1N,17.7
20,C[C@H]1CN([C@@H](C)CO)C(=O)c2cc(N(C)C)ccc2O[C@@H]1CN(C)Cc1ccc(C(=O)Nc2ccccc2N)cc1,17.7
21,COC(=O)C[C@@H]1CC[C@@H]2[C@H](COc3ccc(NC(=O)c4cc(C)on4)cc3C(=O)N2C)O1,12
22,Cc1cc(C)cc(C(=O)NC(=S)Nc2ccc(Cc3ccncc3)cc2)c1,7.66
23,CCc1ccc(S(=O)(=O)c2ccc(-n3nc(C)cc3N)cc2)cc1,19.4

row,Compound,AC35 [µM]
1,O=C1c2ccccc2C(=O)c2cc(N3CCCCC3)ccc21,23.3
2,O=C(O)c1ccccc1C(=O)Nc1ccc(Oc2ccc3ccccc3c2)cc1,9.26
3,C[C@@H]1CN([C@@H](C)CO)C(=O)c2cccc(N(C)C)c2O[C@@H]1CN(C)Cc1ccc(C(=O)Nc2ccccc2N)cc1,21.1
4,C[C@]12CC[C@H]3[C@@H](CC[C@]4(O)C[C@@H](O)CC[C@]34C=O)[C@@]1(O)CC[C@@H]2C1=CC(=O)OC1,2.24
5,COc1ccc(C(=O)NCCNc2nc3cc(C)cc(C)c3cc2C#N)c(OC)c1,15.9
6,COc1ccc(C2=NNC(=Nc3cc(S(=O)(=O)N(C)C)ccc3C)SC2)c(OC)c1,11.9
7,CC(C)Oc1ccc(Br)cc1C(=O)N/N=C/c1c[nH]c2ccccc12,20.1
8,O=C(Nc1ccccc1F)N1CCCCN2[C@H](CO)[C@H](c3ccc(/C=C/c4ccccc4)cc3)[C@H]2C1,10.6
9,CC1(C)N=C(N)N=C(N)N1c1ccc(OCCCOc2ccccc2)c(Cl)c1,4.91
10,C[C@H]1CN([C@@H](C)CO)C(=O)Cc2cc(NC(=O)CCC(F)(F)F)ccc2O[C@H]1CN(C)Cc1ccc(C(=O)Nc2ccccc2N)cc1,9.19
11,CC(=O)Oc1ccc(-c2ccc(C(=O)Nc3cccc(S(=O)(=O)N4CCOCC4)c3)cc2)cc1,3.71
12,COC(=O)CC1(C(=O)OC)Oc2ccc(Br)cc2C(=O)N1c1cccc(Cl)c1Cl (stereo not given),24.9
13,C[C@]12CC[C@H](O)C[C@H]1CC[C@@H]1C2CC[C@]2(C)[C@@H](C3=CC(=O)OC3)[C@@H](O)C[C@]12O (stereo not given in full),9.35
14,OC[C@H]1[C@@H](c2ccc(C#CC3CCCC3)cc2)[C@@H]2CN(CCC(F)(F)F)CCCCN12,18
15,Cc1cccc(CN2C(=O)/C(=C\c3ccc(C(=O)NCCCN4CCN(C)CC4)cc3)Oc3ccccc32)c1,12.9
16,Cn1ccc2cc(-c3ccc4ncnc(NCc5cccs5)c4c3)ccc21,5.67
17,O=C1NC(=O)N(c2ccccc2)C(=O)/C1=C\C=C\c1ccccc1,12.6
18,CN(c1ccc(NC(=O)CCc2c[nH]c3ccccc23)cc1)c1ccccn1,8.74
19,C[C@H]1CN([C@@H](C)CO)C(=O)c2cc(NS(=O)(=O)c3ccc(Cl)cc3)ccc2O[C@H]1CN(C)Cc1ccc(C(=O)Nc2ccccc2N)cc1,14.7
20,CC(=NNc1cc(C)c2ccccc2n1)c1ccccn1,1.38
21,C[C@H](CO)N1C[C@H](C)[C@H](CN(C)Cc2ccc(C(=O)Nc3ccccc3N)cc2)Oc2ccc(N(C)C)cc2C1=O,11.9
22,C[C@@H]1CCCCO[C@H](CN(C)Cc2ccc(C(=O)Nc3ccccc3N)cc2)[C@@H](C)CN([C@H](C)CO)C(=O)c2cc(NS(=O)(=O)c3ccc(Cl)cc3)ccc2O1,16.2
